Reference: the OPERA property sets (Mansouri et al. 2018)

Conditions: for log10 biotransformation half-life (days) / log10 BCF: fish

SMILES	boiling point	melting point	further results
CC(C)C(Cl)Cl	106 °C	–	log10 vapour pressure (mmHg): 1.6
C=CCc1ccccc1C	182 °C	–	–
CCC(=O)CC(C)=O	160 °C	–	–
CCCCC[C@H](O)/C=C/[C@H]1[C@H](O)CC(=O)[C@@H]1C/C=C\CCCC(=O)O	–	67 °C	–
COB1OB(OC)OB(OC)O1	130 °C	10 °C	–
CCOP(=S)(OCC)ON=C(C#N)c1ccccc1	–	–	log10 biotransformation half-life (days): 0.84
Clc1cc(Cl)c(Cl)c(-c2cc(Cl)cc(Cl)c2Cl)c1	–	–	log10 Koc (L/kg): 6.48
Cc1cc(O)c(C(C)C)cc1Cl	258 °C	63 °C	–
O=C(OCC(COC(=O)c1ccccc1)OC(=O)c1ccccc1)c1ccccc1	–	76 °C	–
Cc1cc(C)c([N+](=O)[O-])c(C)c1	255 °C	44 °C	–
Cc1ccc(-c2cccc(C)c2)cc1	289 °C	14.5 °C	–
C1=COCC1	54.5 °C	–	log10 vapour pressure (mmHg): 2.4
C=C1CC[C@H](O)C/C1=C/C=C1\CCC[C@]2(C)[C@@H]([C@H](C)CCCC(C)C)CC[C@@H]12	–	84.5 °C	–
CC(C)(c1ccccc1)c1ccc(Nc2ccc(C(C)(C)c3ccccc3)cc2)cc1	–	–	ready biodegradability: not readily biodegradable
Fc1ccccc1F	94 °C	-34 °C	log10 vapour pressure (mmHg): 1.73; ready biodegradability: not readily biodegradable
ICCCCCCI	–	9.5 °C	–
CC(=O)c1c[nH]c2ccccc12	–	192 °C	–
C=CC(C)=O	81.4 °C	–	log10 Henry constant (atm·m³/mol): -4.33; ready biodegradability: not readily biodegradable
C[C@@H](CO)NC(=O)[C@@H]1C=C2c3cccc4[nH]cc(c34)C[C@H]2N(C)C1	–	162 °C	–
CN=Cc1ccccc1	185 °C	–	–
CC(N)CCN (centres undefined)	140 °C	–	–
CCN(CC)CCSC(=O)N(c1ccccc1)c1ccccc1	–	48.5 °C	–

SMILES	boiling point	melting point	further results
CCCCNC(=O)COC(=O)c1ccccc1	–	69.5 °C	–
CCCCCCCCCCOC(=O)CCCCCCCCC	–	9.7 °C	–
O=C/C(Cl)=C(/Cl)C(=O)O	–	127 °C	–
CCNc1ccc([N+](=O)[O-])cc1	–	97 °C	–
Cc1nonc1C	156 °C	-7 °C	–
CC(C)N(C)C	66 °C	–	–
N#Cc1ccc(OC(F)(F)F)cc1	192 °C	–	–
COc1cc(Cl)c(Cl)cc1OC	–	83 °C	–
C=CC(C)C(C)CC (centres undefined)	112 °C	–	–
CF	-78.4 °C	-142 °C	log10 vapour pressure (mmHg): 3.46
CC(C)COC(=O)c1ccccc1O	261 °C	5.9 °C	–
O=C(c1ccccc1)C1CC1	–	-7.9 °C	–
CCC(=O)Cl	80 °C	-94 °C	–
CC1NC(C)SC(C)S1 (centres undefined)	–	46 °C	–
Cc1cccc(C)c1O	201 °C	45.7 °C	log10 Henry constant (atm·m³/mol): -5.18; log10 vapour pressure (mmHg): -0.767; ready biodegradability: not readily biodegradable
CC(=O)C(=O)c1ccccc1	222 °C	–	–
O=C(O)c1c(Cl)ccc(Cl)c1Cl	–	124 °C	log10 vapour pressure (mmHg): -3.26; ready biodegradability: not readily biodegradable; log10 BCF: 0.54
CCC1(CC)COC(=O)NC1=O	–	97.5 °C	–
CC(C)=CCN=C(N)N	–	62.5 °C	–
Brc1c(Br)c(Br)c2c(c1Br)Oc1c(Br)c(Br)c(Br)c(Br)c1O2	–	376 °C	log10 vapour pressure (mmHg): -12.5
C=C[C@@H]1C2=CCOC(=O)C2=CO[C@H]1O[C@@H]1O[C@H](CO)[C@@H](O)[C@H](O)[C@H]1O	–	191 °C	–
COC(=O)CCCCC(=O)O	–	9 °C	–

SMILES	boiling point	melting point	further results
C#CC(C)(C)O	104 °C	3 °C	log10 Henry constant (atm·m³/mol): -5.41; log10 vapour pressure (mmHg): 1.2
CC(C)(Br)C(=O)Br	163 °C	–	–
CCN1CCCCC1	131 °C	–	–
CS(=O)(=O)F	124 °C	–	log10 vapour pressure (mmHg): 1.04
CS(=O)(=O)c1cc(C(F)(F)F)ccc1C(=O)c1cnoc1C1CC1	–	140 °C	log10 Henry constant (atm·m³/mol): -9.73; log10 vapour pressure (mmHg): -8.12
FCCCCCCl	143 °C	–	–
CCC(C)(CC)OC(N)=O	–	56 °C	log10 vapour pressure (mmHg): -0.155
CCOc1cc(OCC)cc(OCC)c1	–	43.5 °C	–
Clc1cccc2[nH]nnc12	–	–	log10 Koc (L/kg): 1.98
Brc1cc(Br)c(Oc2c(Br)cc(Br)c(Br)c2Br)c(Br)c1Br	–	–	log10 BCF: 5.3
Cc1cccc2c1ccc1ccccc12	–	123 °C	log10 Henry constant (atm·m³/mol): -4.31; log10 biodegradation half-life (days): 1.36; log10 vapour pressure (mmHg): -4.82; log10 biotransformation half-life (days): 0.63
CCOC(=O)C(=O)OCC	186 °C	-40.6 °C	log10 vapour pressure (mmHg): -0.383; ready biodegradability: readily biodegradable
CC(C)(C#N)/N=N/C(C)(C)C#N	–	102 °C	–
CC(C)(Cl)C(=O)O	–	31 °C	–
CCCOC(=O)CC(C)C	156 °C	–	log10 vapour pressure (mmHg): 0.413
C[C@H](O)CCCO	202 °C	–	–
Brc1cc2ccccc2c2ccccc12	–	64.5 °C	–
CCCCCBr	130 °C	-95 °C	log10 vapour pressure (mmHg): 1.1; ready biodegradability: not readily biodegradable
CCCC(CCC)C(=O)O	222 °C	–	ready biodegradability: readily biodegradable
COC(F)(F)C(F)(F)F	–	–	log10 vapour pressure (mmHg): 3.21
C1=CCCCCC1	115 °C	-56 °C	–
